From paper PMC9676650, “Binding pocket stabilization by high-throughput screening of yeast display libraries” (Frontiers in Molecular Biosciences, 2022)
Where a chain is given by its changes, count along the chain named. Several values for one entry are separate records, joined by “and”; a condition that tells them apart may be missing. Equal entries are not always repeated.

Columns and labels:
FKBP51 variant F67W = molecular target: T1, FKBP51 variant F67W (Homo sapiens, UniProt Q13451, F67W); test: Fluorescence polarization tracer binding, FKBP51 F67W; conditions: for Fold change in Kd improvement: FKBP51 F67W compared to WT
T1 construct: made in house; host or cells: E. coli BL21 (DE3)
T1 sequence (Q13451 1-140 F67W): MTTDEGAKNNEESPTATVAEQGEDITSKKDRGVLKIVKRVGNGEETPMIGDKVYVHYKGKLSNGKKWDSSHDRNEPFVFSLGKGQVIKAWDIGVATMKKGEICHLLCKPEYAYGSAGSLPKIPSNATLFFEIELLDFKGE
Description: (§1) All ligands and tracers used for fluorescence polarization assays had purities of more than 95%. The following ligands and tracers were used for fluorescence polarization and FACS screening experiments: •SAFit-FL tracer (1): Fluorescein conjugated analog of the iFit ligand class. •Mcyc-TA tracer (2): TAMRA conjugated macrocyclic ligand (5). •FK [431]-TA tracer (3): TAMRA conjugated FK [431] ligand (6). •SAFit1 ligand (4): analog of the iFit ligand class. •macrocyclic ligand (5):macrocyclic analog of the SAFit class ligands. •FK [431] ligand (6):bicyclic analog of the immunosuppressive drug FK506
(§2) The binding of the generated FKBP51 variants to different conformation-sensitive FKBP ligands was investigated by fluorescence polarization assays. Therefore, a serial dilution of the respective FKBP51 variant in assay buffer (20 mM HEPES pH 8.0, 150 mM NaCl, 0.015% Triton X-100) was placed in a 384-well assay plate and a defined amount of the respective fluorescent tracer (0.5 nM of the SAFit based tracer SAFit-FL (1), 5 nM of the macrocyclic tracer Mcyc-TA 2) or 1 nM of the FK [431]-TA 3) in assay buffer was added to the protein buffer mixture. After incubation for 30 min at room temperature, the fluorescence polarization was measured with a plate reader. The obtained results for each 3 independent experiments were normalized with respect to the maximal binding signal and fitted to a one-site binding model as described by [Wang et al., 1992] yielding the respective binding constants. tracer bound=100/Lt×0.5×(Rt+Lt+KD−(Rt+Lt+KD)^2−4×LtRt) With L t , total concentration of the tracer, R t , total concentration of the receptor and K D binding constant of the complex RL.

FKBP51 variant F67R = molecular target: T2, FKBP51 variant F67R (Homo sapiens, UniProt Q13451, F67R); test: Fluorescence polarization tracer binding, FKBP51 F67R; conditions: for Fold change in Kd improvement: FKBP51 F67R compared to WT; for Kd: FKBP51 F67R, 0.5 nM SAFit-FL, 5 nM Mcyc-TA or 1 nM FK [431]-TA, 30 min room temperature
T2 construct: made in house; host or cells: E. coli BL21 (DE3)
T2 sequence (Q13451 1-140 F67R): T1 sequence (Q13451 1-140 F67W) with W67R
Description: as §1, §2

FKBP51 variant G64K = molecular target: T3, FKBP51 variant G64K (Homo sapiens, UniProt Q13451, G64K); test: Fluorescence polarization tracer binding, FKBP51 G64K; conditions: for Fold change in Kd improvement: FKBP51 G64K compared to WT; for Kd: FKBP51 G64K, 0.5 nM SAFit-FL, 5 nM Mcyc-TA or 1 nM FK [431]-TA, 30 min room temperature
T3 construct: made in house; host or cells: E. coli BL21 (DE3)
T3 sequence (Q13451 1-140 G64K): T1 sequence (Q13451 1-140 F67W) with G64K, W67F
Description: as §1, §2

FKBP51 variant G64S = molecular target: T4, FKBP51 variant G64S (Homo sapiens, UniProt Q13451, G64S); test: Fluorescence polarization tracer binding, FKBP51 G64S; conditions: for Kd: FKBP51 G64S, 0.5 nM SAFit-FL, 5 nM Mcyc-TA or 1 nM FK [431]-TA, 30 min room temperature
T4 construct: made in house; host or cells: E. coli BL21 (DE3)
T4 sequence (Q13451 1-140 G64S): T1 sequence (Q13451 1-140 F67W) with G64S, W67F
Description: as §1, §2

FKBP51 variant S69Y = molecular target: T5, FKBP51 variant S69Y (Homo sapiens, UniProt Q13451, S69Y); test: Fluorescence polarization tracer binding, FKBP51 S69Y; conditions: for Fold change in Kd improvement: FKBP51 S69Y compared to WT; for Kd: FKBP51 S69Y, 0.5 nM SAFit-FL, 5 nM Mcyc-TA or 1 nM FK [431]-TA, 30 min room temperature
T5 construct: made in house; host or cells: E. coli BL21 (DE3)
T5 sequence (Q13451 1-140 S69Y): T1 sequence (Q13451 1-140 F67W) with W67F, S69Y
Description: as §1, §2

FKBP51 variant N63G = molecular target: T6, FKBP51 variant N63G (Homo sapiens, UniProt Q13451, N63G); test: Fluorescence polarization tracer binding, FKBP51 N63G; conditions: for Fold change in Kd improvement: FKBP51 N63G compared to WT; for Kd: FKBP51 N63G, 0.5 nM SAFit-FL, 5 nM Mcyc-TA or 1 nM FK [431]-TA, 30 min room temperature
T6 construct: made in house; host or cells: E. coli BL21 (DE3)
T6 sequence (Q13451 1-140 N63G): T1 sequence (Q13451 1-140 F67W) with N63G, W67F
Description: as §1, §2

FKBP51 variant F67E = molecular target: T7, FKBP51 variant F67E (Homo sapiens, UniProt Q13451, F67E); test: Fluorescence polarization tracer binding, FKBP51 F67E; conditions: for Kd: FKBP51 F67E, 0.5 nM SAFit-FL, 5 nM Mcyc-TA or 1 nM FK [431]-TA, 30 min room temperature
T7 construct: made in house; host or cells: E. coli BL21 (DE3)
T7 sequence (Q13451 1-140 F67E): T1 sequence (Q13451 1-140 F67W) with W67E
Description: as §1, §2

FKBP51 variant G64T = molecular target: T8, FKBP51 variant G64T (Homo sapiens, UniProt Q13451, G64T); test: Fluorescence polarization tracer binding, FKBP51 G64T; conditions: for Fold change in Kd improvement: FKBP51 G64T compared to WT; for Kd: FKBP51 G64T, 0.5 nM SAFit-FL, 5 nM Mcyc-TA or 1 nM FK [431]-TA, 30 min room temperature
T8 construct: made in house; host or cells: E. coli BL21 (DE3)
T8 sequence (Q13451 1-140 G64T): T1 sequence (Q13451 1-140 F67W) with G64T, W67F
Description: as §1, §2

FKBP51 variant F67S = molecular target: T9, FKBP51 variant F67S (Homo sapiens, UniProt Q13451, F67S); test: Fluorescence polarization tracer binding, FKBP51 F67S; conditions: for Fold change in Kd improvement: FKBP51 F67S compared to WT; for Kd: FKBP51 F67S, 0.5 nM SAFit-FL, 5 nM Mcyc-TA or 1 nM FK [431]-TA, 30 min room temperature
T9 construct: made in house; host or cells: E. coli BL21 (DE3)
T9 sequence (Q13451 1-140 F67S): T1 sequence (Q13451 1-140 F67W) with W67S
Description: as §1, §2

Structure (SMILES) | Fold change in Kd improvement (FKBP51 variant F67W) [fold] | Fold change in Kd improvement (FKBP51 variant F67R) [fold] | Kd (FKBP51 variant F67R) [nM] | Fold change in Kd improvement (FKBP51 variant G64K) [fold] | Kd (FKBP51 variant G64K) [nM] | Kd (FKBP51 variant G64S) [nM] | Fold change in Kd improvement (FKBP51 variant S69Y) [fold] | Kd (FKBP51 variant S69Y) [nM] | Fold change in Kd improvement (FKBP51 variant N63G) [fold] | Kd (FKBP51 variant N63G) [nM] | Fold change in Kd improvement (FKBP51 variant F67E; FKBP51 F67E compared to WT) [fold] | Kd (FKBP51 variant F67E) [nM] | Fold change in Kd improvement (FKBP51 variant G64T) [fold] | Kd (FKBP51 variant G64T) [nM] | Fold change in Kd improvement (FKBP51 variant F67S) [fold] | Kd (FKBP51 variant F67S) [nM] | Kd (FKBP51 variant F67W; FKBP51 F67W, 0.5 nM SAFit-FL, 5 nM Mcyc-TA or 1 nM FK [431]-TA, 30 min room temperature) [nM] | Fold change in Kd improvement (FKBP51 variant G64S; FKBP51 G64S compared to WT)
CN(C)c1ccc2c(-c3cc(C(=O)NCCn4cc([C@H]5CN(Cc6ccccn6)C(=O)[C@@H]6CCC[C@H]5N6S(=O)(=O)c5cc(Cl)cc(Cl)c5)nn4)ccc3C(=O)O)c3ccc(=[N+](C)C)cc-3oc2c1 [FK [431]-TA] | 0.004 | 0.016 | 312 ± 14 | 0.283 | 18 ± 1 | 11 ± 1 | 0.077 | 66 ± 2 | 0.850 | 6 ± 0.2 | 0.004 | 1330 ± 66 | 0.084 | 61 ± 2 | 0.004 | 1240 ± 60 | – | –
COc1ccc(CC[C@H]2OC(=O)[C@@H]3CCCCN3C(=O)[C@@H](C3CCCCC3)NC(=O)C(C)(C)NC(=O)COc3cc(OCCNC(=O)c4ccc(C(=O)O)c(-c5c6ccc(=[N+](C)C)cc-6oc6cc(N(C)C)ccc56)c4)cc2c3)cc1OC [Mcyc-TA] | 1.50 | 1.00 | 24 ± 3 | 6.86 | 3.5 ± 0.5 | 0.7 ± 0.2 | 1.41 | 17 ± 1 | 3.16 | 7.6 ± 0.9 | – | 5 ± 0.5 | 1.41 | 17 ± 1 | 1.14 | 21 ± 2 | 16 ± 1 | 34 fold and 34.29 fold
